# Biological target: human DGAT2 (Homo sapiens (Human), UniProt Q96PD7)
# Assay: DGAT2 Enzymatic Activity Assay
# Conditions: Human DGAT2 IC50, hDGAT2 membrane prep from Sf-9 cells; 13C18-triolein product by LC/MS/MS
# Experimental: Sf-9 insect cells were maintained in Grace's insect cell culture medium with 10% heated-inactivated fetal bovine serum, 1% Pluronic F-68 and 0.14 μg/ml Kanamycine sulfate at 27° C. in a shaker incubator. After infection with untagged baculovirus expressing human DGAT2 (hDGAT2) at multiplicity of infection (MOI) 3 for 48 hours, cells were harvested. Cell pellets were suspended in buffer containing 10 mM Tris-HCl pH 7.5, 1 mM EDTA, 250 mM sucrose and Complete Protease Inhibitor Cocktail (Sigma Aldrich), and sonicated on ice. Cell debris were removed by centrifugation at 2000×g for 15 minutes. Membrane fractions were isolated by ultracentrifugation (100,000×g), resuspended in the same buffer, and frozen (−80° C.) for later use. The protein concentration was determined with the Pierce™ BCA Protein Assay Kit (Thermo Fisher Scientific).
# LC/MS/MS analyses were performed using Thermal Fisher's LX4-TSQ Vantage system. This system consists of an Agilent binary high-performance liquid chromatography (HPLC) pump and a TSQ Vantage triple quadrupole MS/MS instrument. For each sample, 2 μL samples from the top organic layer of in-plate liquid-liquid extraction were injected onto a Thermo Betabasic C4 column (2.1 mm×20 mm, 5 μm particle size). The samples were then eluted using the following conditions; mobile phase: Isopropanol: acetonitrile/10 mM ammonium formate=50/35/15 (v/v/v), flow rate: 0.8 mL/min, temperature: 25° C. Data was acquired in positive mode using a heated electrospray ionization (HESI) interface. […] The peak area was integrated by Xcalibur Quan software. The ratio between the ^13C18 triolein generated in the reaction and spiked in internal standard ^13C21-triolein was used to generate percentage inhibition and IC50 values. […] DGAT2 activity was determined by measuring the amount of enzymatic product ^13C18-triolein (^13C-1,2,3-Tri(cis-9-octadecenoyl)glycerol) using the membrane prep mentioned above. The assay was carried out in ABgene 384-well assay plates in a final volume of 25 μL at rt.
# human DGAT2, sequence (Q96PD7 whole entry): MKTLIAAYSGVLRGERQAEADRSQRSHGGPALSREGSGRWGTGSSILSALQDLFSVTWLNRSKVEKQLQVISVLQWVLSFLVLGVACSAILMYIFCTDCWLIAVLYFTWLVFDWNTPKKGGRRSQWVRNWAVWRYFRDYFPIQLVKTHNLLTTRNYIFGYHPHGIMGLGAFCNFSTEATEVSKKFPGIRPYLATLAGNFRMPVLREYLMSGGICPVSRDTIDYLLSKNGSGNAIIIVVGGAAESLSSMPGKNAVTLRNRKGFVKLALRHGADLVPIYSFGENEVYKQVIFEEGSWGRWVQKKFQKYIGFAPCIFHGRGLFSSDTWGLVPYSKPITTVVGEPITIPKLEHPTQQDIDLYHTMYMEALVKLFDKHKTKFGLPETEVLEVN
row,Structure (SMILES),IC50 [nM]
1,"Cn1c(C(=O)NC2(C)CCS(=O)(=O)CC2)nc2cc(Oc3ncccc3OCC(F)(F)F)ccc21 [Example 12, 1-Methyl-N-(4-methyl-1,1-dioxidotetrahydro-2H-thiopyran-4-yl)-5-((3-(2,2,2-trifluoroethoxy)pyridin-2-yl)oxy)-1H-benzo[d]imidazole-2-carboxamide]",694
2,"Cn1c(C(=O)NC2(C)CCS(=O)(=O)CC2)nc2ccc(OCC(OCC(F)F)C(F)(F)F)nc21 (single isomer, unassigned) [Example 64b, 5-[2-(2,2-difluoroethoxy)-3,3,3-trifluoro-propoxy]-3-methyl-N-(4-methyl-1,1-dioxo-thian-4-yl)imidazo[4,5-b]pyridine-2-carboxamide]",3.3
3,"Cc1nc2nc(C(=O)NC3(C)CCS(=O)(=O)CC3)n(C)c2cc1Oc1ncc(Cl)cc1OCC(F)F [Example 86, 6-[[5-Chloro-3-(2,2-difluoroethoxy)-2-pyridyl]oxy]-1,5-dimethyl-N-(4-methyl-1,1-dioxo-thian-4-yl)imidazo[4,5-b]pyridine-2-carboxamide]",39
4,"Cn1c(C(=O)NC2(C)CCS(=O)(=O)CC2)nc2ccc(Oc3ncccc3OCC(F)(F)F)cc21 [Example 11, 1-Methyl-N-(4-methyl-1,1-dioxidotetrahydro-2H-thiopyran-4-yl)-6-((3-(2,2,2-trifluoroethoxy)pyridin-2-yl)oxy)-1H-benzo[d]imidazole-2-carboxamide]",1.3
5,"Cn1c(C(=O)NC2(C)CCS(=O)(=O)CC2)nc2cnc(Oc3ncc(Cl)cc3OCC(F)F)nc21 [Example 88, 2-[[5-Chloro-3-(2,2-difluoroethoxy)-2-pyridyl]oxy]-9-methyl-N-(4-methyl-1,1-dioxo-thian-4-yl)purine-8-carboxamide]",58
6,"CC1(NC(=O)c2nc3ccc(Oc4ncccc4OCC(F)(F)F)cc3s2)CCS(=O)(=O)CC1 [Example 91, N-(4-Methyl-1,1-dioxidotetrahydro-2H-thiopyran-4-yl)-6-((3-(2,2,2-trifluoroethoxy)pyridin-2-yl)oxy)benzo[d]thiazole-2-carboxamide]",1.3

# The next lines start with the values.
row,IC50 [nM],Structure (SMILES)
1,1650,"Cn1c(C(=O)NC2(C)CCS(=O)(=O)CC2)nc2ccc(OCC(OCC(F)F)C(F)(F)F)nc21 (single isomer, unassigned) [Example 64a, 5-[2-(2,2-difluoroethoxy)-3,3,3-trifluoro-propoxy]-3-methyl-N-(4-methyl-1,1-dioxo-thian-4-yl)imidazo[4,5-b]pyridine-2-carboxamide]"
2,2.2,"Cc1cc2nc(C(=O)NC3(C)CCS(=O)(=O)CC3)n(C)c2nc1Oc1ncc(Cl)cc1OCC(F)F [Example 45, 5-((5-chloro-3-(2,2-difluoroethoxy)pyridin-2-yl)oxy)-3,6-dimethyl-N-(4-methyl-1,1-dioxidotetrahydro-2H-thiopyran-4-yl)-3H-imidazo[4,5-b]pyridine-2-carboxamide]"
3,89,"Cn1c(C(=O)NC2(C)CCS(=O)(=O)CC2)nc2c(Cl)c(Oc3ncc(Cl)cc3OCC(F)(F)F)ccc21 [Example 24, 4-Chloro-5-((5-chloro-3-(2,2,2-trifluoroethoxy)pyridin-2-yl)oxy)-1-methyl-N-(4-methyl-1,1-dioxidotetrahydro-2H-thiopyran-4-yl)-1H-benzo[d]imidazole-2-carboxamide]"
4,1.1,"Cn1c(C(=O)NC2(C)CCS(=O)(=O)CC2)cc2ccc(Oc3ncc(Cl)cc3OCC(F)F)nc21 [Example 99, 6-((5-Chloro-3-(2,2-difluoroethoxy)pyridin-2-yl)oxy)-1-methyl-N-(4-methyl-1,1-dioxidotetrahydro-2H-thiopyran-4-yl)-1H-pyrrolo[2,3-b]pyridine-2-carboxamide]"
5,2.5,"CC1(NC(=O)c2nc3cnc(Oc4ncc(Cl)cc4OCC(F)F)cc3s2)CCS(=O)(=O)CC1 [Example 97, 6-[[5-chloro-3-(2,2-difluoroethoxy)-2-pyridyl]oxy]-N-(4-methyl-1,1-dioxo-thian-4-yl)thiazolo[4,5-c]pyridine-2-carboxamide]"
6,215,"Cn1c(C(=O)NC2(C)CCS(=O)(=O)CC2)nc2ccc(OCC(OCC(F)F)C(F)F)nc21 (single isomer, unassigned) [Example 65a, 5-[2-(2,2-difluoroethoxy)-3,3-difluoro-propoxy]-3-methyl-N-(4-methyl-1,1-dioxo-thian-4-yl)imidazo[4,5-b]pyridine-2-carboxamide]"

# Same assay, conditions: read-out: Human DGAT2 IC50; hDGAT2 membrane prep from Sf-9 cells; 13C18-triolein product by LC/MS/MS
row,Structure (SMILES),IC50 [nM]
1,"Cn1c(C(=O)NC2(C)CS(=O)(=O)C2)nc2cnc(Oc3ncc(F)cc3OCC(F)F)cc21 [Example 71, 6-[[3-(2,2-difluoroethoxy)-5-fluoro-2-pyridyl]oxy]-1-methyl-N-(3-methyl-1,1-dioxo-thietan-3-yl)imidazo[4,5-c]pyridine-2-carboxamide]",269
2,"CC1(NC(=O)c2nc3ccc(Oc4ncc(Cl)cc4OCC(F)F)nc3n2CC2(F)COC2)CCS(=O)(=O)CC1 [Example 57, 5-((5-chloro-3-(2,2-difluoroethoxy)pyridin-2-yl)oxy)-3-((3-fluorooxetan-3-yl)methyl)-N-(4-methyl-1,1-dioxidotetrahydro-2H-thiopyran-4-yl)-3H-imidazo[4,5-b]pyridine-2-carboxamide]",183
3,"CC1(NC(=O)c2nc3nc(Oc4ncc(Cl)cc4OCC(F)F)ccc3n2CC2(F)COC2)CCS(=O)(=O)CC1 [Example 56, 5-((5-chloro-3-(2,2-difluoroethoxy)pyridin-2-yl)oxy)-1-((3-fluorooxetan-3-yl)methyl)-N-(4-methyl-1,1-dioxidotetrahydro-2H-thiopyran-4-yl)-1H-imidazo[4,5-b]pyridine-2-carboxamide]",51
4,"Cn1c(C(=O)NC2(C)CCS(=O)(=O)CC2)nc2ccc(OCc3ncc(F)cc3OCC(F)(F)F)nc21 [Example 59, 5-[[5-Fluoro-3-(2,2,2-trifluoroethoxy)-2-pyridyl]methoxy]-3-methyl-N-(4-methyl-1,1-dioxo-thian-4-yl)imidazo[4,5-b]pyridine-2-carboxamide]",2.8
5,"Cc1cc2nc(C(=O)NC3(C)CCS(=O)(=O)CC3)n(C)c2nc1Oc1ncc(F)cc1OCC(C)(F)F [Example 47, 5-[[3-(2,2-difluoropropoxy)-5-fluoro-2-pyridyl]oxy]-3,6-dimethyl-N-(4-methyl-1,1-dioxo-thian-4-yl)imidazo[4,5-b]pyridine-2-carboxamide]",79

# Continued, values first:
row,IC50 [nM],Structure (SMILES)
1,3.3,"O=C(N[C@H]1CCCC(F)(F)[C@@H]1O)c1nc2ccc(Oc3ncc(Cl)cc3OCC(F)F)nc2s1 [Example 96, 5-((5-chloro-3-(2,2-difluoroethoxy)pyridin-2-yl)oxy)-N-((1S,2R)-3,3-difluoro-2-hydroxycyclohex-yl)thiazolo[5,4-b]pyridine-2-carboxamide]"
2,10,"Cn1c(C(=O)N[C@H]2CCCC(F)(F)[C@@H]2O)nc2cnc(Oc3ncc(Cl)cc3OCC(F)F)cc21 [Example 75, 6-[[5-chloro-3-(2,2-difluoroethoxy)-2-pyridyl]oxy]-N-[(1S,2R)-3,3-difluoro-2-hydroxy-cyclohexyl]-1-methyl-imidazo[4,5-c]pyridine-2-carboxamide]"
3,25,"Cc1nc2nc(C(=O)NC3(C)CCS(=O)(=O)CC3)n(C)c2cc1Oc1ncc(F)cc1OCC(F)(F)F [Example 87, 6-[[5-fluoro-3-(2,2,2-trifluoroethoxy)-2-pyridyl]oxy]-1,5-dimethyl-N-(4-methyl-1,1-dioxo-thian-4-yl)imidazo[4,5-b]pyridine-2-carboxamide]"
